Measurements: patent US20260193227A1, “THERAPEUTIC COMPOUNDS AND METHODS” (UNIVERSITY OF IOWA RESEARCH FOUNDATION, priority 2022, published 2026)
Entries after “also recorded” stand apart in the source; their conditions may differ.

Columns and labels:
EUFA423F HA cells = experiment: CellTiter-Glo cell viability, BRCA2-complemented cells; type: cell-based, human; details: high concentrations (Z56: 250 μM)
EUFA423F cells = experiment: CellTiter-Glo cell viability, BRCA2-mutated cells; type: cell-based, human; details: for toxicity towards EUFA423 cells: BRCA2-mutated cells, yes/no; for toxicity / selective toxicity towards BRCA2-mutated cells in cell viability assays: EUFA423F versus EUFA423F HA
Source text: Cell lines: EUFA423F cells that are derived from a Fanconi Anemia patient with complementation group D1 and have biallelic mutations (7691 insAT and 9900 insA) in BRCA2 that result in two different truncated forms of BRCA2 (Howlett N G, et al., Science (New York, NY). 2002; 297(5581):606-9) and its counterpart complemented with expression vector for full-length BRCA2 (EUFA HA) were a generous gift from Dr. Simon Powell, Molecular Biology Program, Radiation Oncology, Sloan-Kettering Cancer Center, New York, NY).
Cell proliferation assay: Selective toxicity of the compounds towards human BRCA2 deficient cells was tested in EUFA423F and its complement EUFA423F HA using CellTiter-Glo® Luminescent Cell Viability Assay (Promega, Madison, WI). The cell lines were maintained in DMEM (Gibco/ThermoFisher Scientific, Waltham, MA) supplemented with 10% FBS and 10 mM HEPES (Gibco/ThermoFisher Scientific, Waltham, MA). EUFA423F HA cells were routinely supplemented with G418 in order to maintain the BRCA2 expression plasmid. Both cell lines were seeded in sterile tissue culture treated, white opaque 384-well plates (Perkin Elmer Inc., Waltham, MA) 3000 cells/well for EUFA423F HA and 2500 cells/well for EUFA423F) and allowed to adhere for 24 hours. Compounds dissolved in DMSO were added in the concentration range of 0-100 μM. Controls were treated with equivalent DMSO volumes. The cells were treated with compounds for 72 hours (to ensure that all cells experienced at least two S-phases). Post treatment, the cells were washed, treated with the CellTiter-Glo® reagent was added and the plate was analyzed as using a Gen5 (ver2.1) luminosity plate reader. The luminescence that reports on ATP generation by the surviving cells was normalized for the DMSO treated control as 100%. The normalized luminescence (average±standard deviation for at least three independent measurements obtained with different cell passages) was plotted in GraphPad Prism as a function of compound concentration. Clonogenic Survival: EUFA423F and EUFA423F HA cells were seeded in a 96 well plate. Compounds dissolved in DMSO were added to final concentrations of 0, 50, and 100 μM for the compound of Example 8 and the compound of Example 1, and 0, 5, and 10 μM for the compounds of Examples 2-7. The cells were treated with compounds for 72 hours. Post treatment, cell cultures were harvested by collecting all non-adherent cells in the well, trypsinization of all adherent cells, combining, pelleting and then resuspending in fresh media. Cultures treated with DMSO only were subsequently counted using a hemocytometer and plated at a density of 2000, 200 and 20 cells per well in 6-well culture plates, equal volumes of cultures were plated each inhibitor concentration. Each treatment and cell density conditions for both cell lines were plated in triplicate. After expanding the colonies for a period of 8 days, cultures were fixed with a solution of 70% ethanol and crystal violet for clonogenic survival analysis. Pictures of individual wells were taken using GelCount (Version 1.3.0.4) by Oxford Optronix (Abingdon UK). A colony had to contain at least 50 cells to be counted. The number of surviving colonies following treatment are presented as a percentage of number of colonies in the experiment where the cells were treated with DMSO only.

Row | Compound | effect on viability/growth of BRCA2-complemented HA cells (EUFA423F HA cells; listed as Z99) | toxicity towards EUFA423 cells (EUFA423F cells) | toxicity / selective toxicity towards BRCA2-mutated cells in cell viability assays (EUFA423F cells; CellTiter-Glo, 72 hours, listed as Z99) | effect on viability/growth of BRCA2-complemented HA cells (EUFA423F HA cells) | toxicity / selective toxicity towards BRCA2-mutated cells in cell viability assays (EUFA423F cells; CellTiter-Glo, 72 hours, listed as Z56) | IC50 (EUFA423F cells; Homo sapiens, CellTiter-Glo, 72 hours, read-out: IC50 value for the EUFA423F viability experiments)
1 | O=C(Cn1cccc([N+](=O)[O-])c1=O)c1c[nH]c2ccccc12 [Example 1] | affected the viability; also recorded: some toxicity towards BRCA2-complemented cells | yes | selectively toxic; also recorded: shows toxicity towards BRCA2-mutated cells | – | – | –
2 | COc1ccccc1NS(=O)(=O)c1cc(C(=O)O)ccc1C [Example 8] | – | yes | – | unaffected | toxicity only towards BRCA2 mutant cells; also recorded: selectively toxic to BRCA2-mutated cells | 32 ± 12.1 µM
